Measurements published in ChEMBL document CHEMBL5126528, “Recent strategies targeting Embryonic Ectoderm Development (EED) for cancer therapy: Allosteric inhibitors, PPI inhibitors, and PROTACs” (Eur J Med Chem, 2022).

Tests used:
DB [1] = assay: Antiproliferative activity against human DB cells measured after 9 days by tryphan blue staining; format: functional, cell-based; conditions: 216 h
Pfeiffer [2] = assay: Antiproliferative activity against human Pfeiffer cells measured after 3 days by tryphan blue staining; format: functional, cell-based; conditions: 72 h
[3] = molecular target: Histone-lysine N-methyltransferase EZH2 (Homo sapiens, UniProt Q15910); assay: Inhibition of EZH2 (unknown origin)
Sequence of Histone-lysine N-methyltransferase EZH2 (Q15910 whole entry): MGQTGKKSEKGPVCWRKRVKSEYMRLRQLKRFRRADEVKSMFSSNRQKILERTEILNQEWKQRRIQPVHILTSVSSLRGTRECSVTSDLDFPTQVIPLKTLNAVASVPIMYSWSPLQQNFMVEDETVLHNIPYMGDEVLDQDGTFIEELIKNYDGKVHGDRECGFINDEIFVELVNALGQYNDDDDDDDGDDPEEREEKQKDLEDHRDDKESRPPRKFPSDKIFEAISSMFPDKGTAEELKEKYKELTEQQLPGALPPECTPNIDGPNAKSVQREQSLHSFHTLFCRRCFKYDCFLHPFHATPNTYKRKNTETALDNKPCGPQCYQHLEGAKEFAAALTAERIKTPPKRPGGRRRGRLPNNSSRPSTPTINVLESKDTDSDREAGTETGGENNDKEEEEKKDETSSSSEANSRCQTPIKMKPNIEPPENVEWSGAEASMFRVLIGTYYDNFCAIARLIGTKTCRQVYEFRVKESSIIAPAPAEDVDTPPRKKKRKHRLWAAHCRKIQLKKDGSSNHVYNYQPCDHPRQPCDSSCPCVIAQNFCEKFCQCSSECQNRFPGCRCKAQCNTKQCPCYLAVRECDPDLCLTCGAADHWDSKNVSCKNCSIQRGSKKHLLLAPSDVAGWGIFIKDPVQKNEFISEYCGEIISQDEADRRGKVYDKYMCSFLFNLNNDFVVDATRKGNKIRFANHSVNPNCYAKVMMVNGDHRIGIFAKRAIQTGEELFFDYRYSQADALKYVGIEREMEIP

[4] = molecular target: T1, von Hippel-Lindau disease tumor suppressor/Polycomb protein EED (Homo sapiens, UniProt O75530+P40337); assay: Protac activity at VHL/EED in human HeLa cells assessed as degradation of protein measured after 24 hrs by Bradford assay kit method; format: cell-based
Target sequence in this assay (O75530 whole entry): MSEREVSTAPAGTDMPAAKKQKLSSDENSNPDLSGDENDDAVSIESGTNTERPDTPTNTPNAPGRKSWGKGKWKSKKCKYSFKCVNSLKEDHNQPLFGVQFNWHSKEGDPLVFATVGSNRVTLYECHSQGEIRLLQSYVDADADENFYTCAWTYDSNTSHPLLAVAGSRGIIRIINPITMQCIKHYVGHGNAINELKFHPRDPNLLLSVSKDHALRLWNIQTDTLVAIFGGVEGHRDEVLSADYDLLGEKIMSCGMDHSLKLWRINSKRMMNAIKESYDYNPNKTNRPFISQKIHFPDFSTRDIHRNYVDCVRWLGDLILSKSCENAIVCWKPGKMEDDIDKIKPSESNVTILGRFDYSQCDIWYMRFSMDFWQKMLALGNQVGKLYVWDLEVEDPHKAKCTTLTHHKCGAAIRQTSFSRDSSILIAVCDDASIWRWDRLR
Target sequence in this assay (P40337 whole entry): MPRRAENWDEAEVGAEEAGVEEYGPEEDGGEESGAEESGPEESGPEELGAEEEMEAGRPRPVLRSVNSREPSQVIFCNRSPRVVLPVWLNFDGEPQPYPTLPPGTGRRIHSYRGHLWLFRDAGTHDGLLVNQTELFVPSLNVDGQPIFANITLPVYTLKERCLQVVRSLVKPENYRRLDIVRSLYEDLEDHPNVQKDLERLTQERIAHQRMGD

[5] = molecular target: T2, von Hippel-Lindau disease tumor suppressor/Histone-lysine N-methyltransferase EZH2 (Homo sapiens, UniProt Q15910+P40337); assay: Protac activity at VHL/EZH2 in human HeLa cells assessed as degradation of protein measured after 24 hrs by Bradford assay kit method; format: cell-based
Target sequence in this assay (Q15910 whole entry): as the sequence (Q15910 whole entry) above
Target sequence in this assay (P40337 whole entry): as the sequence (P40337 whole entry) above

[6] = molecular target: T1, von Hippel-Lindau disease tumor suppressor/Polycomb protein EED; assay: Protac activity at VHL/EED in human DB cells assessed as degradation of protein measured after 24 to 72 hrs by Bradford assay kit method; format: cell-based
Target sequence in this assay (O75530 whole entry): as the sequence (O75530 whole entry) above
Target sequence in this assay (P40337 whole entry): as the sequence (P40337 whole entry) above

[7] = molecular target: T3, von Hippel-Lindau disease tumor suppressor/Polycomb protein SUZ12 (Homo sapiens, UniProt Q15022+P40337); assay: Protac activity at VHL/SUZ12 in human HeLa cells assessed as degradation of protein measured after 24 hrs by […] relative to control; format: cell-based
Target sequence in this assay (P40337 whole entry, looked up): as the sequence (P40337 whole entry) above
Target sequence in this assay (Q15022 whole entry, looked up): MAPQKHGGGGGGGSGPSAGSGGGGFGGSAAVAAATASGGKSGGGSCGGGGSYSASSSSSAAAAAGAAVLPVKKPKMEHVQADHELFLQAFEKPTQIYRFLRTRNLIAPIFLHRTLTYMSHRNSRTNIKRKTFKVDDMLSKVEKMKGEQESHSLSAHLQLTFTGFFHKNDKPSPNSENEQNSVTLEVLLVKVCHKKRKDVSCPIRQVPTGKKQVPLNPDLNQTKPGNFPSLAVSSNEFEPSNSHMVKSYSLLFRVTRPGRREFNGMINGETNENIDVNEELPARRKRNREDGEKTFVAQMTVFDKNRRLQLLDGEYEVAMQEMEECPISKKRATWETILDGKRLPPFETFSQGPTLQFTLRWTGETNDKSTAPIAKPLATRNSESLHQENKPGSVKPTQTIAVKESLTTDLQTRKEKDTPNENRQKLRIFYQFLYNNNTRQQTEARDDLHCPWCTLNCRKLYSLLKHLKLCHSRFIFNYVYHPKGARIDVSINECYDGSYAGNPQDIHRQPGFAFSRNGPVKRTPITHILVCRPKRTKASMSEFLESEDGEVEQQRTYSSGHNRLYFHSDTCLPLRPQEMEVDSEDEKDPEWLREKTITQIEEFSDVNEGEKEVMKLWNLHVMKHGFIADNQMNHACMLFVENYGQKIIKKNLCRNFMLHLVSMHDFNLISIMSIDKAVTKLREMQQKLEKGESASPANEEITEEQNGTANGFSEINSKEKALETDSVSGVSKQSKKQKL

[8] = molecular target: T2, von Hippel-Lindau disease tumor suppressor/Histone-lysine N-methyltransferase EZH2; assay: Protac activity at VHL/EZH2 in human DB cells assessed as degradation of protein measured after 24 to 72 hrs by Bradford assay kit method; format: cell-based
Target sequence in this assay (Q15910 whole entry): as the sequence (Q15910 whole entry) above
Target sequence in this assay (P40337 whole entry): as the sequence (P40337 whole entry) above

[9] = molecular target: T3, von Hippel-Lindau disease tumor suppressor/Polycomb protein SUZ12; assay: Protac activity at VHL/SUZ12 in human DB cells assessed as degradation of protein measured after 24 to 72 hrs by Bradford assay kit method; format: cell-based
Target sequence in this assay (Q15022 whole entry): as the sequence (Q15022 whole entry, looked up) above
Target sequence in this assay (P40337 whole entry): as the sequence (P40337 whole entry) above

[10] = molecular target: T1, von Hippel-Lindau disease tumor suppressor/Polycomb protein EED; assay: Protac activity at VHL/EED in human DB cells assessed as degradation of protein measured after 24 to 72 hrs by Bradford assay kit method relative to control; format: cell-based; conditions: time 24-72 hrs
Target sequence in this assay (O75530 2-441 limits assumed): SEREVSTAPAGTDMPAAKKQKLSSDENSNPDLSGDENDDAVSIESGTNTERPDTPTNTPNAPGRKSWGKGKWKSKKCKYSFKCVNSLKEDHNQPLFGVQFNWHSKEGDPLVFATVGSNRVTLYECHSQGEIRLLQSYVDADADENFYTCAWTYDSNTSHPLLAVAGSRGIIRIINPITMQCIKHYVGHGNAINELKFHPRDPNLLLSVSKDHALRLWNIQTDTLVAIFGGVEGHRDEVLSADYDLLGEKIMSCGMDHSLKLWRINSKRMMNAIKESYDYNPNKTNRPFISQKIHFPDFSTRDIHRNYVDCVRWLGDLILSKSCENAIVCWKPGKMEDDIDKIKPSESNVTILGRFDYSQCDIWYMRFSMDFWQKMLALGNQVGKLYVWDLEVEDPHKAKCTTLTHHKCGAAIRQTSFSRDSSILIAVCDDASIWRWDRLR
Target sequence in this assay (P40337 whole entry partner): as the sequence (P40337 whole entry) above

[11] = molecular target: T2, von Hippel-Lindau disease tumor suppressor/Histone-lysine N-methyltransferase EZH2; assay: Protac activity at VHL/EZH2 in human DB cells assessed as degradation of protein measured after 24 to 72 hrs by Bradford assay kit method relative to control; format: cell-based; conditions: time 24-72 hrs
Target sequence in this assay (P40337 whole entry, looked up): as the sequence (P40337 whole entry) above
Target sequence in this assay (Q15910 whole entry, looked up): as the sequence (Q15910 whole entry) above

[12] = molecular target: T3, von Hippel-Lindau disease tumor suppressor/Polycomb protein SUZ12; assay: Protac activity at VHL/SUZ12 in human DB cells assessed as degradation of protein measured after 24 to 72 hrs by Bradford assay kit method relative to control; format: cell-based; conditions: time 24-72 hrs
Target sequence in this assay (P40337 whole entry, looked up): as the sequence (P40337 whole entry) above
Target sequence in this assay (Q15022 whole entry, looked up): as the sequence (Q15022 whole entry, looked up) above

DB [13] = assay: Antiproliferative activity against human DB cells assessed as viable cells with replenishment of medium with compound for every three days upto 9 days by trypan blue staining based automated bio-rad TC20 cell counter method; format: functional
Pfeiffer [14] = assay: Antiproliferative activity against human Pfeiffer cells assessed as viable cells with replenishment of medium with compound for every three days upto 6 days by trypan blue staining based automated bio-rad TC20 cell counter method; format: functional

Work on `Cc1ncsc1-c1ccc(CNC(=O)[C@@H]2C[C@@H](O)CN2C(=O)[C@@H](NC(=O)CCCNC(=O)c2ccc(-c3cnc(NCc4ccco4)n4cnnc34)cc2)C(C)(C)C)cc1` yielded an EC50 (DB [1]) of 3400 nM, an IC50 (Pfeiffer [2]) of 410 nM and an IC50 [3] of 300 nM. For the same compound, the DC50 [4] was 790 nM, the DC50 [5] was 300 nM and the DC50 [6] was 610 nM. The Emax [7] was 22%, the DC50 [8] was 670 nM and the DC50 [9] was 590 nM. It also gave an Emax [10] of 94%, an Emax [11] of 96% and an Emax [12] of 82%. For the same compound, the EC50 (DB [13]) was 3400 nM and the EC50 (Pfeiffer [14]) was 410 nM.
